Consider twelve compounds from ChEMBL document CHEMBL1201862, “PubChem BioAssay data set” (2004).

Structures are written as SMILES.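 Compound exposure: 48 hours, 5 concentrations, 96-well plates. GI50 marks 50% less growth.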 The source made the active and inactive calls. Cut-off read from the data, not from the text of the source: active = GI50 up to about 1.1 µM and inactive = higher.

Holding throughout (assay): NCI tumour cell line growth inhibition, 48 h
The subject of experiment [1] is NCI-H460.
Experiment [2] deals with CAKI-1.
Experiment [3] relates to DU-145.
For experiment [4], the system named is HCT-15.
In experiment [5] the test system is NCI-H522.
Experiment [6] concerns MDA-MB-435.
For experiment [7], the system named is K562.
Experiment [8] deals with SK-MEL-5.
Experiment [9] deals with SF-268.
Experiment [10] has as its system RPMI-8226.
Experiment [11] deals with A549.
Experiment [12] has as its system U-251.
Experiment [13] relates to OVCAR-5.
The subject of experiment [14] is PC-3.
Experiment [15] relates to 786-0.
Experiment [16] concerns SK-MEL-2.
Experiment [17] relates to IGROV-1.
Experiment [18] deals with HL-60.
Experiment [19] relates to NCI-H226.
Experiment [20] concerns Hs-578T.

Turning to `O=C1OCCC12CN(Cc1ccccc1)N=N2` (centres undefined), the GI50 in experiment [1] is > 100 µM (inactive); in experiment [2], 58.7 µM (inactive); in [3] it was 87.7 µM (inactive); in experiment [4], greater than 100 µM; in [5], 49.9 µM (inactive); in experiment [6] it was > 100 µM (inactive). Further, the GI50 in experiment [7], in experiment [8], in experiment [9], in experiment [10], in [11] and in [12] was > 100 µM (inactive) each time. Further, the GI50 in [13], in [14], in [15] and in [16] was > 100 µM (inactive) each time.
`CC1CNC(NS(=O)(=O)c2cc(C(=O)Nc3ccccc3)c(Cl)cc2S)=NN1` (centres undefined): the GI50 is 63 µM (inactive) in experiment [1]; > 100 µM (inactive) in [2]; > 100 µM (inactive) in [3]; 33.8 µM in experiment [4]; 6.24 µM (inactive) in [17]; 23.4 µM (inactive) in experiment [5]. The GI50 in [6] is 17.7 µM (inactive); in experiment [18], 66.2 µM (inactive); in [7] it was 35.2 µM (inactive); in experiment [8], 23.2 µM (inactive); in experiment [9] it was 26.1 µM (inactive); in [10] it was 31.4 µM (inactive). Also, the GI50 was 33.7 µM (inactive) in experiment [11]; 39.1 µM (inactive) in experiment [12]; 27.2 µM (inactive) in [13]; 29 µM (inactive) in [14]; 44.7 µM (inactive) in experiment [19]; 92.3 µM (inactive) in experiment [15]. Besides, the GI50 in experiment [16] is 22.2 µM (inactive).
With `C[n+]1ccc2/c(=C\C#N)c3ccccc3n21`, the GI50 was 31 µM (inactive) in experiment [1]; > 100 µM (inactive) in experiment [2]; 15.8 µM (inactive) in experiment [3]; greater than 100 µM in experiment [4]; 23.9 µM (inactive) in [17]; 24.5 µM (inactive) in experiment [5]. The GI50 in [6] is 23.3 µM (inactive); in experiment [18], 17.3 µM (inactive); in experiment [7] it was 61.2 µM (inactive); in [8], 16.7 µM (inactive); in [9], 32.2 µM (inactive); in experiment [10] it was 11.8 µM (inactive). Further, the GI50 in experiment [11] was 19.1 µM (inactive); in [12] it was 12.9 µM (inactive); in experiment [13], 37.3 µM (inactive); in experiment [14], 25.9 µM (inactive); in experiment [19] it was 32.5 µM (inactive); in [15], 52.2 µM (inactive). Also, the GI50 in [16] is 30.8 µM (inactive).
For `COc1cc2c(c(O)c1OC)C(O)C1CCC(=O)N1C2c1ccc2c(c1)OCO2` (centres undefined), the GI50 is > 100 µM (inactive) in experiment [1]; > 100 µM (inactive) in experiment [2]; > 100 µM (inactive) in experiment [3]; greater than 100 µM in experiment [4]; > 100 µM (inactive) in experiment [17]; > 100 µM (inactive) in experiment [5]. In addition, the GI50 in experiment [6], in experiment [18], in experiment [7], in experiment [9], in experiment [11] and in experiment [12] was > 100 µM (inactive) each time. In addition, the GI50 in [13], in [14], in experiment [19] and in [15] was > 100 µM (inactive) in each case.
As to `CC(Cn1c2c(c3cc(O)ccc31)CCc1ccc(O)cc1-2)N(C)C` (centres undefined), the GI50 was 15.1 µM (inactive) in [1]; 22.4 µM (inactive) in experiment [2]; 13.9 µM in experiment [4]; 12.8 µM (inactive) in experiment [17]; 17.9 µM (inactive) in experiment [6]; 64.1 µM (inactive) in experiment [18]. The GI50 was 34.5 µM (inactive) in experiment [7]; 17.1 µM (inactive) in [20]; 20.7 µM (inactive) in [9]; 38.3 µM (inactive) in experiment [10]; 28.2 µM (inactive) in [12]; 19.3 µM (inactive) in experiment [13]. Further, the GI50 in [14] is 12.4 µM (inactive); in [19] it was 14.4 µM (inactive); in experiment [15] it was 15.5 µM (inactive); in experiment [16] it was 16.4 µM (inactive).
Regarding `COC(=O)C(=O)C(C(=O)C(N)=O)c1nc2ccc(C(=O)c3ccccc3)cc2nc1O` (centres undefined), the GI50 in experiment [1] was 74.5 µM (inactive); in [2], 56 µM (inactive); in experiment [4] it was 55.7 µM; in [17], 83.2 µM (inactive); in [5], 40.7 µM (inactive); in [6], 65 µM (inactive). Besides, the GI50 in experiment [18] was 84.7 µM (inactive); in experiment [7] it was 34.2 µM (inactive); in experiment [20], 80.5 µM (inactive); in experiment [8], 45.7 µM (inactive); in experiment [9], > 100 µM (inactive); in [10], 62.5 µM (inactive). The GI50 in experiment [11] was > 100 µM (inactive); in experiment [12] it was > 100 µM (inactive); in [13], > 100 µM (inactive); in [14] it was 75.2 µM (inactive); in experiment [19], > 100 µM (inactive); in experiment [15], > 100 µM (inactive). Moreover, the GI50 in experiment [16] was > 100 µM (inactive).
As to `CCOC(=O)C1=C(OC(OCC)C(CC)[Se]c2ccccc2)CCCC1` (centres undefined), the GI50 in [1] is 36.4 µM (inactive); in experiment [2], 37.3 µM (inactive); in [4], 16.9 µM; in experiment [17], 26.8 µM (inactive); in [5] it was 14.6 µM (inactive); in experiment [18], 15.9 µM (inactive). Besides, the GI50 in [7] is 34.2 µM (inactive); in experiment [8] it was 12.6 µM (inactive); in experiment [9] it was 19 µM (inactive); in experiment [10], 13 µM (inactive); in [11] it was 45.3 µM (inactive); in [12] it was 12.6 µM (inactive). In addition, the GI50 is 26.3 µM (inactive) in experiment [13], 21.8 µM (inactive) in experiment [19], 15.6 µM (inactive) in experiment [15] and 8.32 µM (inactive) in experiment [16].
Regarding `CC1=C(c2ccccc2)CON(c2ccccc2)C1`, the GI50 in experiment [1] is 35 µM (inactive); in experiment [2] it was 39.6 µM (inactive); in experiment [4], 28.4 µM; in experiment [17], 43.3 µM (inactive); in experiment [5], 15.2 µM (inactive); in [18], 26.6 µM (inactive). Besides, the GI50 in experiment [7] is 30.1 µM (inactive); in experiment [8], 20.5 µM (inactive); in experiment [9], 39.9 µM (inactive); in experiment [10], 28.4 µM (inactive); in experiment [11], 54.5 µM (inactive); in [12], 25.8 µM (inactive). Besides, the GI50 in experiment [13] was 32.9 µM (inactive); in [19] it was 85.7 µM (inactive); in [15], 36.8 µM (inactive); in experiment [16] it was 26.6 µM (inactive).
Regarding `CCN(CC)CCCNc1nc2ccccc2[n+]([O-])n1`, the GI50 is > 100 µM (inactive) in experiment [1]; > 100 µM (inactive) in experiment [2]; > 100 µM (inactive) in experiment [3]; greater than 100 µM in experiment [4]; > 100 µM (inactive) in [17]; > 100 µM (inactive) in [5]. Also, the GI50 in [6], in [18], in experiment [7], in experiment [8], in experiment [9] and in experiment [10] was > 100 µM (inactive) throughout. In addition, the GI50 in [11], in experiment [12], in [13], in experiment [14], in experiment [19] and in experiment [15] was > 100 µM (inactive) throughout. In addition, in [16], the GI50 was > 100 µM (inactive).
As for `Cn1c(=O)c2[nH]c(Nc3cccc(Cl)c3)nc2n(C)c1=O`, the GI50 in experiment [2] was 4.75 µM (inactive); in [3], 4.76 µM (inactive); in experiment [4], 4.99 µM; in experiment [17] it was 3.8 µM (inactive); in [6], 3.82 µM (inactive); in experiment [18], 3.31 µM (inactive). Further, the GI50 was 5.4 µM (inactive) in experiment [7]; 4.28 µM (inactive) in experiment [8]; 6.98 µM (inactive) in experiment [9]; 2.49 µM (inactive) in experiment [10]; 5.6 µM (inactive) in experiment [11]; 4.11 µM (inactive) in experiment [14]. For the same compound, in [15], the GI50 was 4.4 µM (inactive).
On to `COC1CC2C3/C(=N/Nc4ccc([N+](=O)[O-])cc4[N+](=O)[O-])CCC2(C)C3C1` (centres undefined), for which the GI50 in [1] was > 100 µM (inactive); in experiment [2] it was > 10 µM (inactive); in experiment [4], greater than 100 µM; in [17], > 10 µM (inactive); in experiment [5], > 10 µM (inactive); in [18] it was 52.6 µM (inactive). In addition, the GI50 in experiment [7] was 75.5 µM (inactive); in [8], > 10 µM (inactive); in experiment [9], > 100 µM (inactive); in experiment [10] it was 78 µM (inactive); in [11], > 100 µM (inactive); in [12], > 10 µM (inactive). Further, the GI50 in experiment [13], in [19], in experiment [15] and in experiment [16] was > 10 µM (inactive) throughout.
Regarding `COC(=O)c1cc(C#Cc2cc(OC)ccc2OC)ccc1OC`, the GI50 was 56.8 µM (inactive) in experiment [1]; 60 µM (inactive) in experiment [2]; 40.3 µM in experiment [4]; 53.2 µM (inactive) in [17]; 37.8 µM (inactive) in experiment [5]; 41.3 µM (inactive) in experiment [6]. The GI50 in experiment [18] is 31.1 µM (inactive); in [7], < 0.01 µM (active); in [20] it was > 100 µM (inactive); in [8], 24.4 µM (inactive); in [9], 75.7 µM (inactive); in experiment [10], 13.9 µM (inactive). In addition, the GI50 in experiment [11] was 34.8 µM (inactive); in experiment [12] it was 95.1 µM (inactive); in experiment [13], > 100 µM (inactive); in [14], 40.7 µM (inactive); in [19], 67 µM (inactive); in [15], 51.3 µM (inactive). Also, the GI50 in [16] was 43.5 µM (inactive).
